# In publication PMC8388771, “Cationic Peptidomimetic Amphiphiles Having a N-Aryl- or N-Naphthyl-1,2,3-Triazole Core Structure Targeting Clostridioides (Clostridium) difficile: Synthesis, Antibacterial Evaluation, and an In Vivo C. difficile Infection Model” (Antibiotics, 2021):
# Where two headings read alike, the source gives them in different places.
# What was measured:
# C. difficile ATCC 700057 = assay: Primary MIC assay, C. difficile ATCC 700057; format: cell-based, Clostridioides difficile; conditions: Table 1; for MIC: Clostridioides difficile, ATCC700057, read-out: MIC C. difficile ATCC 700057
# Procedure: (§1) The N-arytriazole and N-naphthyltriazole peptidomimetics were subjected to antimicrobial screening. […] Vancomycin, colistin, fluconazole, and tamoxifen were used as positive controls (see Table 1 for details).
# (§2) Primary screening (Gram-positive bacteria). Primary MIC assays were performed as described by the Clinical and Laboratory Standards Institute for aerobic and anaerobic bacteria. MIC values for vancomycin were within acceptable QC ranges.
# S. aureus ATCC 29213 = assay: Primary MIC assay, S. aureus ATCC 29213; format: cell-based; conditions: Staphylococcus aureus, ATCC29213; Table 1; read-out: MIC S. aureus ATCC 29213
# Procedure: as §1, §2
# C. difficile = assay: MIC against C. difficile, strain not given; format: cell-based; conditions: Clostridioides difficile, strains of Table 1
# Procedure: as §2
# [1] = Cytotoxicity (CC50) assay by CO-ADD; format: cell-based, human; conditions: human, HEK293 cells (ATCC CRL-1573); Table 1; cytotoxicity on HEK293 cells, tested at ≤32 µg/mL
# Source text: as §1
# (§3) Secondary screening (MRSA and Gram-negative bacteria) and cytotoxicity assay–performed by the Community for Open Antimicrobial Drug Discovery (CO-ADD). Samples were provided to CO-ADD [29] for antimicrobial screening by whole cell growth inhibition assays.
# Cytotoxicity Assay. These were performed as described previously.
# human erythrocytes = assay: Hemolysis assay, HC50 determination; format: cell-based
# Procedure: Hemolysis assay (human erythrocytes)–HC50 determination. These were performed as described previously.
# S. aureus ATCC 43300 = assay: CO-ADD MIC assay, S. aureus ATCC 43300 (MRSA); format: cell-based; conditions: Staphylococcus aureus, MRSA, read-out: MIC S. aureus ATCC 43300
# Source text: as §1, §3
# (§4) Bacterial Inhibition–MIC Assay. These were performed as described previously.
# A. baumannii ATCC 19606 = assay: CO-ADD MIC assay, A. baumannii ATCC 19606; format: cell-based; conditions: Acinetobacter baumannii, ATCC19606, Table S1
# Source text: as §1, §3, §4
# S. aureus NCTC 10442 = assay: Primary MIC assay, S. aureus NCTC 10442 (MRSA); format: cell-based; conditions: Staphylococcus aureus, MRSA
# Procedure: as §1, §2
# C. albicans ATCC 90028 = assay: CO-ADD MIC assay, C. albicans ATCC 90028; format: cell-based; conditions: Candida albicans, ATCC90028, Table S1
# Source text: as §1, §3
# E. coli ATCC 25922 [2] = assay: CO-ADD MIC assay, E. coli ATCC 25922; format: cell-based; conditions: Escherichia coli, ATCC25922, Table S1
# Source text: as §1, §3, §4
# E. coli ATCC 25922 [3] = assay: Primary MIC assay, E. coli ATCC 25922; format: cell-based; conditions: Escherichia coli, ATCC25922; Table 1; read-out: MIC E. coli ATCC 25922
# [4] = tested on: Cryptococcus neoformans var. grubii ATCC 208821; assay: CO-ADD MIC assay, C. neoformans var. grubii ATCC 208821; format: cell-based; conditions: for MIC: Cryptococcus neoformans, ATCC208821, Table S1; for MIC C. neoformans var. grubii ATCC 208821: Table S1
# Source text: as §1, §3
# E. faecalis ATCC 29212 = assay: Primary MIC assay, E. faecalis ATCC 29212; format: cell-based, Enterococcus faecalis; conditions: Enterococcus faecalis, ATCC29212; Table 1; read-out: MIC E. faecalis ATCC 29212
# Procedure: as §1, §2
# [5] = Comparative solubility assay (solubility ratio relative to compound 1); format: physicochemical
# Source text: While the selectivity ratio could be more substantial, this is acceptable for the future development of these gastrointestinal focused compounds. […] These outcomes were confirmed with no issues during the mouse model trials with sufficient solubility in the dosage regimen. Variations on the triazole and O-naphthyl substituents could be made in future studies with the view of enhancing antibacterial activity against C. difficile.
# C. difficile 132 (RT027) = assay: Primary MIC assay, C. difficile 132 (RT027); format: cell-based, Clostridioides difficile; conditions: Table 1; for MIC: Clostridioides difficile, read-out: MIC C. difficile 132 (RT027)
# Procedure: as §1, §2
# P. aeruginosa ATCC 27853 = assay: CO-ADD MIC assay, P. aeruginosa ATCC 27853; format: cell-based; conditions: Pseudomonas aeruginosa, ATCC27853, Table S1
# Source text: as §1, §3, §4
# [6] = tested on: K. pneumoniae ATCC 700603; assay: CO-ADD MIC assay, K. pneumoniae ATCC 700603; format: cell-based; conditions: Klebsiella pneumoniae, ATCC700603, Table S1, multi-drug resistant
# Source text: as §1, §3, §4
# S. pneumoniae ATCC 49619 = assay: Primary MIC assay, S. pneumoniae ATCC 49619; format: cell-based, Streptococcus pneumoniae; conditions: Streptococcus pneumoniae, ATCC49619; Table 1; read-out: MIC S. pneumoniae ATCC 49619
# Procedure: as §1, §2
# [7] = Table 1, lysis of human erythrocytes
# [8] = Table S1, footnote says lysis of sheep erythrocytes
# [9] = Table 1, read-out: MIC S. aureus NCTC 10442
MIC (C. difficile ATCC 700057) [µg/mL],MIC (S. aureus ATCC 29213) [µg/mL],"MIC (S. aureus ATCC 43300; Table S1, CO-ADD) [µg/mL]",MIC (A. baumannii ATCC 19606) [µg/mL],MIC (S. aureus NCTC 10442; [9]) [µg/mL],MIC (C. albicans ATCC 90028) [µg/mL],MIC (E. coli ATCC 25922 [2]) [µg/mL],MIC (E. coli ATCC 25922 [3]) [µg/mL],MIC [4] [µg/mL],MIC C. neoformans var. grubii ATCC 208821 [4] [µg/mL],MIC (E. faecalis ATCC 29212) [µg/mL],MIC (C. difficile 132 (RT027)) [µg/mL],MIC (P. aeruginosa ATCC 27853) [µg/mL],MIC [6] [µg/mL],MIC (S. pneumoniae ATCC 49619) [µg/mL],SMILES,CC50 [1] [µg/mL],HC50 (human erythrocytes; [7]) [µg/mL],HC50 (human erythrocytes; [8]) [µg/mL],also measured
8,8,8,32,8,> 32,32,32,4 to 8,8,8,8,32,> 32,8,CC(C)CCc1cn(-c2c(OCC(=O)N[C@H](CCCCN)C(=O)N[C@H](CCCNC(=N)N)Cn3cc(Cc4ccccc4)nn3)ccc3ccccc23)nn1.Cl.Cl [Compound 42],32,32,32,"MIC C. difficile ATCC 700057 (C. difficile ATCC 700057): 8 µg/mL; MIC (C. difficile): 8 µg/mL; HC50 (human erythrocytes; Table 2, footnote says lysis of sheep erythrocytes): 32 µg/mL; MIC (S. aureus ATCC 43300; Table 2): 8 µg/mL; MIC (S. aureus NCTC 10442; MRSA / NCTC 10442 / NCTC 104422, Table 2, read-out: MIC S. aureus NCTC 104422): 8 µg/mL; relative solubility ratio (relative to compound 1) [5]: 4; MIC C. difficile 132 (RT027) (C. difficile 132 (RT027)): 8 µg/mL"
> 32,> 32,> 32,> 32,> 32,> 32,> 32,> 32,> 32,–,> 32,> 32,> 32,> 32,> 32,CC(C)CCOc1ccccc1-n1nncc1COCC(=O)N[C@H](CCCCN)C(=O)N[C@H](CCCNC(=N)N)Cn1cc(C2CCCCC2)nn1 [Compound 48],> 32,24.5,24.5,–
128,16,8,32,16,> 32,32,64,4 to 8,8,64,128,32,> 32,4,CC(C)CCc1cnnn1-c1c(OCC(=O)N[C@H](CCCCN)C(=O)N[C@H](CCCNC(=N)N)Cn2cc(C3CCCCC3)nn2)ccc2ccccc12.Cl.Cl [Compound 43],> 32,>32,> 32,–
